Data on 35 compounds can be found in patent US20250353841A1 (BIOGEN MA INC., priority 2022, published 2025).

In general, IC50 refers to the concentration that inhibits the measured activity by half. Lower therefore signals greater potency in that assay.

This assay relates to mutant Huntington (HTT) protein. Kind of assay: HTT Mutant HTRF iPSC assay (mHTT protein lowering). It counts as cell-based. Particulars: human iPSC derived from a HTT patient with a poly-Q49 mutation. A general note: In TR-FRET formats the signal depends on donor and acceptor labels being close together.

The structures appear in SMILES notation.

Consider `Cc1cn2nc(-c3cc(F)c4nc(N5CCC(N(C)C)CC5)oc4c3)cc(C(F)(F)F)c2n1` [Compound 506, 1-(4-fluoro-6-(2-methyl-8-(trifluoromethyl)imidazo [1,2-b]pyridazin-6-yl)benzo[d]oxazol-2-yl)-N,N-dimethylpiperidin-4-amine], for which the IC50 is less than 100 nM. In turn, `Cc1cn2nc(-c3cc(F)c4nc(N5CCC(CN6CCCC6)C5)oc4c3)cc(C)c2n1` (centres unmarked) [Compound 483, 6-(2,8-dimethylimidazo[1,2-b]pyridazin-6-yl)-4-fluoro-2-(3-(pyrrolidin-1-ylmethyl)pyrrolidin-1-yl)benzo[d]oxazole] registered an IC50 of 100 to 1000 nM. To `Cc1cn2nc(-c3cc(F)c4nc(CC5CNCCO5)nn4c3)cc(C)c2n1` (centres unmarked) [Compound 446, 2-((6-(2,8-dimethylimidazo[1,2-b]pyridazin-6-yl)-8-fluoro-[1,2,4]triazolo[1,5-a]pyridin-2-yl)methyl)morpholine] belongs 100 to 1000 nM; to `CN[C@H]1CC[C@H](c2cn3cc(-c4cc(F)c5nn(C)cc5c4)cc(F)c3n2)CC1` [Compound 170, (1r,4r)-4-(8-fluoro-6-(7-fluoro-2-methyl-2H-indazol-5-yl)imidazo[1,2-a]pyridin-2-yl)-N-methylcyclohexan-1-amine], less than 100 nM.

Compound `Cc1cn2nc(-c3cc(F)c4nc(C56CC(N(C)C)(C5)C6)cn4c3)cc(C)c2n1` [Compound 109, 3-(6-(2,8-dimethylimidazo[1,2-b]pyridazin-6-yl)-8-fluoroimidazo[1,2-a]pyridin-2-yl)-N,N-dimethylbicyclo[1.1.1] pentan-1-amine] displayed an IC50 of less than 100 nM. For `Cc1cn2nc(-c3cc(F)c4nc(C5CCN(C6CC6)CC5)nn4c3)cc(C)c2n1` [Compound 433, 2-(1-cyclopropylpiperidin-4-yl)-6-(2,8-dimethylimidazo[1,2-b]pyridazin-6-yl)-8-fluoro-[1,2,4]triazolo[1,5-a]pyridine] the value was 100 to 1000 nM; for `Cc1cn2nc(-c3cc(F)c4nc([C@H]5[C@@H]6CNC[C@@H]65)cn4c3)cc(C)c2n1` [Compound 161, 6-[2-[(1S,5R)-3-azabicyclo[3.1.0]hexan-6-yl]-8-fluoro-imidazo[1,2-a]pyridin-6-yl]-2,8-dimethyl-imidazo[1,2-b]pyridazine], less than 100 nM.

For the compound `CCN1CCC(c2cn3cc(-c4cc(F)c5nn(C)cc5c4)cc(F)c3n2)CC1` [Compound 5, 5-(2-(1-ethylpiperidin-4-yl)-8-fluoroimidazo[1,2-a]pyridin-6-yl)-7-fluoro-2-methyl-2H-indazole], the concentration for half-maximal inhibition (IC50) was 100 to 1000 nM. For `COCCN1C[C@@H]2[C@H](C1)[C@H]2c1cn2cc(-c3cc(C)c4nc(C)cn4n3)cc(F)c2n1` [Compound 187, 6-(8-fluoro-2-((1R,5S,6r)-3-(2-methoxyethyl)-3-azabicyclo[3.1.0]hexan-6-yl)imidazo[1,2-a]pyridin-6-yl)-2,8-dimethylimidazo[1,2-b]pyridazine] the value was less than 100 nM. The compound `Cc1cn2nc(-c3cc(F)c4nn(C5CCNCC5)nc4c3)cc(C)c2n1` [Compound 139, 6-(2,8-dimethylimidazo[1,2-b]pyridazin-6-yl)-4-fluoro-2-(piperidin-4-yl)-2H-benzo[d][1,2,3]triazole] yielded an IC50 of less than 100 nM. For `Cc1cn2cc(-c3cc(F)c4nc(CC5CCNCC5)cn4c3)cc(F)c2n1` [Compound 236, 8,8′-difluoro-2-methyl-2′-(piperidin-4-ylmethyl)-6,6′-biimidazo[1,2-a]pyridine] the value was 100 to 1000 nM; for `Cc1cn2nc(-c3cc(F)c4nc(NC(=O)C5CCNCC5)cn4c3)cc(C)c2n1` [Compound 250, N-(6-(2,8-dimethylimidazo[1,2-b]pyridazin-6-yl)-8-fluoroimidazo[1,2-a]pyridin-2-yl)piperidine-4-carboxamide], 100 to 1000 nM. With `Cc1cn2nc(-c3cc(F)c4nc(C5CCN(CC6CC6)CC5)nn4c3)cc(C)c2n1` [Compound 438, 2-(1-(cyclopropylmethyl)piperidin-4-yl)-6-(2,8-dimethylimidazo[1,2-b]pyridazin-6-yl)-8-fluoro-[1,2,4]triazolo[1,5-a]pyridine], the IC50 is 100 to 1000 nM. `Cc1cn2nc(-c3cc(F)c4nc([C@H]5[C@@H]6CNC[C@@H]65)oc4c3)cc(C)c2n1` [Compound 455, 2-((1R,5S,6r)-3-azabicyclo[3.1.0]hexan-6-yl)-6-(2,8-dimethylimidazo[1,2-b]pyridazin-6-yl)-4-fluorobenzo[d]oxazole] came in with an IC50 of 100 to 1000 nM. For `Cc1cn2nc(-c3cc(F)c4nc(N5CCC(N(C)C)CC5)oc4c3)cc2c(C)n1` [Compound 497, 1-(6-(4,6-dimethylpyrazolo[1,5-a]pyrazin-2-yl)-4-fluorobenzo[d]oxazol-2-yl)-N,N-dimethylpiperidin-4-amine] the value was 100 to 1000 nM; for `CCN1CCC(Nc2nc3c(F)cc(-c4cc(C)c5nc(C)cn5n4)cc3o2)CC1` [Compound 479, 6-(2,8-dimethylimidazo[1,2-b]pyridazin-6-yl)-N-(1-ethylpiperidin-4-yl)-4-fluorobenzo[d]oxazol-2-amine], less than 100 nM. To `Cc1cn2nc(-c3cc(F)c4nc(C5CCNCC5)cn4c3)cc(C(F)F)c2n1` [Compound 153, 8-(difluoromethyl)-6-(8-fluoro-2-(piperidin-4-yl)imidazo[1,2-a]pyridin-6-yl)-2-methylimidazo[1,2-b]pyridazine] belongs less than 100 nM; to `Cc1cn2nc(-c3cc(F)c4nc(C5CCC6(CC5)CC(N)C6)[nH]c4c3)cc(C)c2n1` (centres unmarked) [Compound 559, 7-(6-(2,8-dimethylimidazo[1,2-b]pyridazin-6-yl)-4-fluoro-1H-benzo[d]imidazol-2-yl)spiro[3.5]nonan-2-amine], 100 to 1000 nM. For `Cc1cn2nc(-c3cc(F)c4nc(NC(=O)[C@H]5C[C@H](N(C)C)C5)cn4c3)cc(C)c2n1` [Compound 288, (1r,3r)-3-(dimethylamino)-N-(6-(2,8-dimethylimidazo[1,2-b]pyridazin-6-yl)-8-fluoroimidazo[1,2-a]pyridin-2-yl)cyclobutane-1-carboxamide] the value was less than 100 nM; for `Cc1cn2nc(-c3ccc4nc(C5CCNCC5)c(F)n4c3)cc(C)c2n1` [Compound 557], less than 100 nM; for `Cc1cc(-c2cc(F)c3nc(C4CCNCC4)nn3c2)cc2cn(C)nc12` [Compound 432, 6-(2,7-dimethyl-2H-indazol-5-yl)-8-fluoro-2-(piperidin-4-yl)-[1,2,4]triazolo[1,5-a]pyridine], 100 to 1000 nM. Compound `Cc1cn2nc(-c3cc(F)c4nc([C@H]5C[C@@]6(CN[C@H](C)C6)C5)cn4c3)cc(C)c2n1` (single isomer, unassigned) [Compound 176, 6-(8-fluoro-2-((2S*,4r,7S*)-7-methyl-6-azaspiro[3.4]octan-2-yl)imidazo[1,2-a]pyridin-6-yl)-2,8-dimethylimidazo[1,2-b]pyridazine] had an IC50 of less than 100 nM. On to `Cc1cn2cc(-c3cc(OC(F)F)c4nc(C5CCNCC5)cn4c3)cc(F)c2n1` [Compound 536, 8-(difluoromethoxy)-8′-fluoro-2′-methyl-2-(piperidin-4-yl)-6,6′-biimidazo[1,2-a]pyridine], for which the IC50 was 100 to 1000 nM. To `Cc1cn2cc(-c3cc(F)c4[nH]c(C5CCNCC5)nc4c3)cc(C)c2n1` [Compound 147, 5-(2,8-dimethylimidazo[1,2-a]pyridin-6-yl)-7-fluoro-2-(piperidin-4-yl)-1H-benzo[d]imidazole] belongs 1000 to 9000 nM; to `Fc1cc(-c2ccc3sncc3c2)cn2cc(C3CCNCC3)nc12` [Compound 98, 5-(8-fluoro-2-(piperidin-4-yl)imidazo[1,2-a]pyridin-6-yl)benzo[d]isothiazole], 1000 to 9000 nM; to `COC1CC1N1CCC(c2cn3cc(-c4cc(C)c5nc(C)cn5n4)cc(F)c3n2)CC1` (centres unmarked) [Compound 205, 6-(8-fluoro-2-(1-(2-methoxycyclopropyl)piperidin-4-yl)imidazo[1,2-a]pyridin-6-yl)-2,8-dimethylimidazo[1,2-b]pyridazine], 100 to 1000 nM. To `Cc1cn2nc(-c3cc(F)c4nc(N5CC6CN(C)CC6C5)oc4c3)cc(C)c2n1` (centres unmarked) [Compound 466, 6-(2,8-dimethylimidazo[1,2-b]pyridazin-6-yl)-4-fluoro-2-(5-methylhexahydropyrrolo [3,4-c]pyrrol-2(1H)-yl)benzo[d]oxazole] belongs 100 to 1000 nM. Regarding `CCc1nc(C)cn2cc(-c3cc(F)c4nc(C5CCN(C6CC6)CC5)cn4c3)cc12` [Compound 172, 2-(1-cyclopropylpiperidin-4-yl)-6-(1-ethyl-3-methylpyrrolo[1,2-a]pyrazin-7-yl)-8-fluoroimidazo[1,2-a]pyridine], the IC50 lay within 100 to 1000 nM.

Take `Cc1cn2nc(-c3cc(F)c4nc(C5CC6(CNC6)C5)cn4c3)cc(C)c2n1` [Compound 107]: the IC50 lay in the range of 100 to 1000 nM. In turn, `Cc1cn2cc(-c3cc(F)c4nc(C5CCNCC5)oc4c3)cc(F)c2n1` [Compound 156, 4-fluoro-6-(8-fluoro-2-methylimidazo[1,2-a]pyridin-6-yl)-2-(piperidin-4-yl)benzo[d]oxazole] showed an IC50 of 1000 to 9000 nM. `Cc1cn2nc(-c3cc(F)c4nc(C5CCC(N(C)C)CC5)nn4c3)cc(C)c2n1` (centres unmarked) [Compound 447, 4-(6-(2,8-dimethylimidazo[1,2-b]pyridazin-6-yl)-8-fluoro-[1,2,4]triazolo[1,5-a]pyridin-2-yl)-N,N-dimethylcyclohexan-1-amine] yielded an IC50 of 100 to 1000 nM.

Turning to `Cc1cn2nc(-c3cc(F)c4nn(C5CCN(C)CC5)nc4c3)cc(C)c2n1` [Compound 380, 6-(2,8-dimethylimidazo[1,2-b]pyridazin-6-yl)-4-fluoro-2-(1-methyl-4-piperidyl)benzotriazole], the IC50 fell in the range of 100 to 1000 nM.

For `Fc1cc(-c2ccc3ncsc3c2)cn2cc(C3CCNCC3)nc12` [Compound 44, 6-(8-fluoro-2-(piperidin-4-yl)imidazo[1,2-a]pyridin-6-yl)benzo[d]thiazole], the IC50 was 1000 to 9000 nM.

For the compound `Cc1cc2nc(-c3cc(F)c4nc(C5CCNCC5)cn4c3)ccn2n1` [Compound 200, 5-(8-fluoro-2-(piperidin-4-yl)imidazo[1,2-a]pyridin-6-yl)-2-methylpyrazolo[1,5-a]pyrimidine], the IC50 was less than 100 nM.

For the compound `Cc1cn2nc(-c3cc(F)c4nc([C@H]5CCNC6(CC6)C5)cn4c3)cc(C)c2n1` (single isomer, unassigned) [Compound 180], the IC50 was less than 100 nM.
